Patent publication US20200199647A1, “ASSAY FOR SCREENING MODULATORS OF HOLOPHOSPHATASE ACTIVITY” (UNITED KINGDOM RESEARCH AND INNOVATION, priority 2017, published 2020)

Key:
R15A [1] = biological target: T1, R15A (Homo sapiens, UniProt O75807); assay: Light scattering to monitor aggregation of R15A; settings: 1 mM compound, 5 μM R15A, 10 min, 20° C.
T1 construct: PPP1R15A amino acids 325-636 (R15A); His6 (C); made in house; host or cells: E. coli BL21 pLysS
Description: Samples were incubated for 10 min at RT. […] Therefore, light scattering was measured at 380 nm emission, 380 nm absorption to monitor the presence of aggregates. For each sample, 100 data points were collected over a period of 10 min, at 20° C., with constant stirring.

R15A [2] = biological target: T1, R15A; assay: Binding of R15A to biotinylated compounds on Streptavidin beads and elution
Description: Purified R15A protein was diluted to 1 μM in IP buffer (50 mM Tris [pH 7.4], 150 mM NaCl, 0.1% Tween20, 10% glycerol). 1 μM R15A, in 100 μl volume, was pre-cleared with 25 μl of Pierce Streptavidin Magnetic Beads (ThermoFisher) for 1 h at 4° C. with rotation at 20 rpm. […] Samples were incubated for 3 h at 4° C. with rotation at 20 rpm. The supernatant was removed, and samples were thoroughly washed and transferred to a fresh Eppendorf. The beads were washed thoroughly with 5×1 ml interaction buffer, with 30 min incubation each time, and then resuspended with 50 μl of 4% SDS Laemmli sample buffer. Samples were run on 4-12% NuPAGE Bis-Tris gels (Life Technologies), and analysed by immunoblotting using α-MBP HRP (E8038) (NEB) (to reveal R15A). […] Samples were incubated for 10 min at 4° C. with 20 rpm rotation. 30 μl of supernatant was added to 10 μl of 16% SDS Laemmli sample buffer. 10 μl sample was run on 4-12% NuPAGE Bis-Tris gel (Life Technologies), and analysed by immunoblotting using α-MBP HRP (E8038) (NEB) (to reveal R15A).

[3] = biological target: T2, PP1 (1 μM) in the presence of R15B (Homo sapiens, UniProt Q5SWA1); assay: In vitro dephosphorylation of P-eIF2α using stoichiometric PP1c (1 μM) with R15B; assay type: biochemical; settings: 1 μM PP1c, 1 μM P-eIF2α, 30° C., 16 h; compound 100 μM
T2 construct: PPP1R15B amino acids 340-698 (R15B); His6 (C); made in house; host or cells: E. coli BL21 pLysS (R15B, eIF2α); E. coli BL21/pGro7 (PP1c)
T2 sequence (Q5SWA1 340-698): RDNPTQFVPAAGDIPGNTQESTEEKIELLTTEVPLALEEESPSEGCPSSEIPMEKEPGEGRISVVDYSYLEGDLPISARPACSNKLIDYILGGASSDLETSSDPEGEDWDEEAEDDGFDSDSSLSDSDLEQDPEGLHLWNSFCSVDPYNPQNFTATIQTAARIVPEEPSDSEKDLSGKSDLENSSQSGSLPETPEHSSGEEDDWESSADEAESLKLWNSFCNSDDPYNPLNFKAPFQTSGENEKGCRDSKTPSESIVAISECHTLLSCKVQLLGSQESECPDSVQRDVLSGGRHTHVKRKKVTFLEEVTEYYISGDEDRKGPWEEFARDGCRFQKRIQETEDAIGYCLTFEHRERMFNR
T2 sequence (P62136 7-330 partner limits assumed): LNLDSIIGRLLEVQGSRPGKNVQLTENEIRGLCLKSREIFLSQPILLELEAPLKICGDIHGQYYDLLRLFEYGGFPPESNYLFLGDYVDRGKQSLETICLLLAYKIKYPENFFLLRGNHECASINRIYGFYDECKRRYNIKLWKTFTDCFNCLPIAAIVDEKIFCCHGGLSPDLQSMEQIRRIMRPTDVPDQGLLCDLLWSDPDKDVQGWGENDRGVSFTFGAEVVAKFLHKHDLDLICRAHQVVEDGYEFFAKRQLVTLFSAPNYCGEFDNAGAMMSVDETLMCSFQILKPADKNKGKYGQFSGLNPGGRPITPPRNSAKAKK
Description: PP1c was diluted to the appropriate concentration (as indicated in the figure legends) in dephosphorylation buffer immediately prior to use. Dephosphorylation reactions were carried out by pre-incubating diluted PP1c in the presence or absence of regulatory subunits (either […]), and/or compounds (all at 100 μM, except for Salubrinal which was used at 30 μM), for 15′ at RT. All compounds were diluted in DMSO, and DMSO vehicle was used in all control experiments.
The reaction was initiated by the addition of 1 μM P-eIF2α or ^33P Phosphorylase a substrates and then incubated at 30° C. for 16 h with shaking at 350 rpm. Reactions were stopped by addition of 4× Laemmli sample buffer. eIF2α samples were analyzed by immunoblotting or Phos-tag gels. P-eIF2α dephosphorylation was analysed by immunoblotting using anti-Phospho-eIF2α (SerS1) (#9721) (Cell Signaling) and anti-eIF2α (ab26197) (AbCam) antibodies. Samples in FIG. 8 and FIG. 16 were run on a 15% SuperSep Phos-tag acrylamide gel (Alpha Laboratories) and visualized by staining with InstantBlue Protein Stain.
As previously reported (Connor et al., 2001), in vitro PP1c alone (1 μM) dephosphorylated eIF2α, and in vitro co-incubation with R15A had no effect in this assay (FIG. 1A). […]

T1 sequence (O75807 325-636, stated change not applied): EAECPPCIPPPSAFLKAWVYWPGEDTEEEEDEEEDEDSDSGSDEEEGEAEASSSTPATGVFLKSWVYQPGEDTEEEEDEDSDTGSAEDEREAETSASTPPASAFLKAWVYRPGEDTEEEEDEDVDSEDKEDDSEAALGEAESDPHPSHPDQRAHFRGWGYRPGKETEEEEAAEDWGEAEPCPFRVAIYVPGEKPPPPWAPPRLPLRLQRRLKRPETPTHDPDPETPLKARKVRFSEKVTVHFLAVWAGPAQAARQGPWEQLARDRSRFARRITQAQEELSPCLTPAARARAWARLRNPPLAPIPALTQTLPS

N=C(N)N/N=C/c1c(Cl)cccc1Cl [Guanabenz]
aggregation of R15A (light scattering at 380 nm) (R15A [1]): No aggregation
binding to R15A (R15A [2]; 0.5 mM biotinylated compound on Streptavidin beads, 1 μM R15A): directly bind R15A
nature of binding to R15A (elution with excess compound) (R15A [2]; elution with 2 mM free compound): not covalent

NC(N)=N/N=C/c1cccc(Cl)c1Cl [Raphin1]
effect on dephosphorylation of eIF2α by PP1c with R15B [3]: nor the selective inhibitor of R15B, Raphin1, had any measurable effects
